Experiments:
Type in all cases: physicochemical
[1] = Thermal decomposition temperature (TG/DTA, 2% weight reduction); conditions: point of 2% weight reduction; 10° C./minute from 30° C. to 500° C.; nitrogen atmosphere
Method: The synthesized photoacid generator was measured for the change in weight under a temperature increasing condition of 10° C./minute from 30° C. to 500° C. under a nitrogen atmosphere using a thermal gravimetric/differential thermal analyzer (TG/DTA 6200, available from Seiko Instruments Inc.), and a point where the weight was reduced by 2% was defined as the thermal decomposition temperature.

[2] = Solvent solubility (butyl acetate, toluene or PGMEA); conditions: 25° C.
Method in brief: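 Test-tube titration at 25° C: 0.1 g photoacid generator, solvent (butyl acetate, toluene or PGMEA) added in 0.2 g portions until fully dissolved. Scored as not dissolved if still undissolved after 20 g solvent.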

[3] = Molar extinction coefficient of i-line (365 nm), UV-visible absorbance in acetonitrile; conditions: 0.25 mmol/L in acetonitrile, cell length 1 cm
Method in brief: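 Compound at 0.25 mmol/L in acetonitrile; UV-visible absorbance scanned 200–500 nm in a 1 cm path cell. ε365 calculated from the absorbance at 365 nm.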

Thermal decomposition temperature [1] [°C] | Solvent solubility PGMEA [2] [wt %] | Solvent solubility Butyl acetate [2] [wt %] | Solvent solubility Toluene [2] [wt %] | Molar extinction coefficient [3] [L/mol/cm] | Structure (SMILES)
231 | 3 | 3 | 3.5 | 12000 | CC1(C)C2CCC1(CS(=O)(=O)ON1C(=O)c3cccc4c(OCC(F)(F)C(F)F)ccc(c34)C1=O)C(=O)C2 (stereo not drawn) [Example A-43, 4-(2,2,3,3-tetrafluoro-1-propoxy)-1,8-naphthalimide-(+)-10-camphorsulfonate]
252 | 3.5 | 4.5 | 2.5 | 6200 | CC(C)(C)Cc1cc2c3c(cc(CC(C)(C)C)cc3c1)C(=O)N(OS(=O)(=O)CC13CCC(CC1=O)C3(C)C)C2=O (stereo not drawn) [Example A-54, 3,6-dineopentyl-1,8-naphthalimide-(+)-10-camphorsulfonate]
240 | 1.5 | 1.1 | 2 | 8500 | CC1(C)C2CCC1(CS(=O)(=O)ON1C(=O)c3cccc4c(Br)ccc(c34)C1=O)C(=O)C2 (stereo not drawn) [Example A-60, 4-bromo-1,8-naphthalimide-(+)-10-camphorsulfonate]
247 | 1.7 | 2 | 1.9 | 6500 | CC(C)(C)c1cc2c3c(cc(C(C)(C)C)cc3c1)C(=O)N(OS(=O)(=O)CC13CCC(CC1=O)C3(C)C)C2=O (stereo not drawn) [Example A-53, 3,6-di-tert-butyl-1,8-naphthalimide-(+)-10-camphorsulfonate]

Further lines, the molecule ahead of its results:

Structure (SMILES) | Thermal decomposition temperature [1] [°C] | Solvent solubility PGMEA [2] [wt %] | Solvent solubility Butyl acetate [2] [wt %] | Solvent solubility Toluene [2] [wt %] | Molar extinction coefficient [3] [L/mol/cm]
O=C1c2cc(C34CC5CC(CC(C5)C3)C4)cc3cc(C45CC6CC(CC(C6)C4)C5)cc(c23)C(=O)N1OS(=O)(=O)C(F)(F)F [Example A-15, 3,6-diadamantyl-1,8-naphthalimide trifluoromethanesulfonate] | 250 | 7 | 7.5 | 8.5 | 6000
CC(C)(C)c1cc2c3c(cc(C(C)(C)C)cc3c1)C(=O)N(OS(=O)(=O)c1c(F)c(F)c(F)c(F)c1F)C2=O [Example A-33, 3,6-di-tert-butyl-1,8-naphthalimide pentafluorobenzenesulfonate] | 245 | 6 | 6.5 | 6 | 6500
O=C(Oc1cc2c3c(cccc3c1)C(=O)N(OS(=O)(=O)c1c(F)c(F)c(F)c(F)c1F)C2=O)c1c(F)c(F)c(F)c(F)c1F [Example A-32, 3-pentafluorobenzoyloxy-1,8-naphthalimide pentafluorobenzenesulfonate] | 244 | 19 | 24 | 22 | 1300

From US20160368879A1, “PHOTOACID GENERATOR, AND RESIN COMPOSITION FOR PHOTOLITHOGRAPHY” (SAN-APRO LTD., priority 2013, published 2016)
